Test [1] concerns the target FAD-linked sulfhydryl oxidase ALR (Homo sapiens, UniProt P55789). Kind of test: inhibitors of human ALR sulfhydryl oxidase, dose response, biochemical, H2O2 detection, luminescence, cherry-pick (AID 493248).
Test [2] deals with Escherichia coli. Kind of test: microbe, parasite or virus in culture.
In test [3] the target is T1, Cysteine protease ATG4B (Homo sapiens, UniProt Q9Y4P1).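 Note: Fluorescence-based dose-response confirmation assay measuring inhibition of ATG4B activity.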
T1 sequence (Q9Y4P1 whole entry): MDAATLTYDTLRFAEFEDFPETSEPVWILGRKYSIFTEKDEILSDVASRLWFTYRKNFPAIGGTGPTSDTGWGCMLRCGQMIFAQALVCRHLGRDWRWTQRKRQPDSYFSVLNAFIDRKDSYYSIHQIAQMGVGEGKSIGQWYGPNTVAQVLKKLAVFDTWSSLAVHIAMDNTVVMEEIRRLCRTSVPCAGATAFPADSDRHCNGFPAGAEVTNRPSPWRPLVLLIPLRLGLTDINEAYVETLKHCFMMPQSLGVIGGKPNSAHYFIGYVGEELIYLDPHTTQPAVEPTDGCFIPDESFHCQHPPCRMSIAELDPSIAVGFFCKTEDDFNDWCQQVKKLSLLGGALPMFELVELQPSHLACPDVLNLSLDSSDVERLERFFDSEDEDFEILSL
Type of test: functional.

In test [4] the target is Phospholipase A2 (Homo sapiens, UniProt P04054). Type of test: functional.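 Note: confirmatory dose-response counterscreen on phospholipase A2, testing hits that came from an ultra-high-throughput screen for ATG4B inhibitors.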
A short description of test [5]: THP-1 cell cytotoxicity, dose response, cytotoxicity control for non-replicating M. tuberculosis project (AID 489025). It is filed as functional.
Test [6] can be described thus: cells. Type of test: functional.
Test [7] can be described thus: Vero E6 cell cytotoxicity, dose response, cytotoxicity control for non-replicating M. tuberculosis project, secondary assay (AID 492998). To be noted: Vero C1008. Type of test: functional, VeroE6.
The target of test [8] is T2, Polyadenylate-binding protein 1 (Homo sapiens, UniProt P11940). Kind of test: PABP1 MLLE–PAM2 binding inhibitor potency, dose response, biochemical, fluorescence polarization, FITC-PAM2 peptide (AID 602259). It is filed as functional. To be noted: read-out: IC50_Mean.
Test [9] deals with T2, Polyadenylate-binding protein 1. Kind of test: PABP1 MLLE–PAM2 interaction inhibitors, dose response, miRNA deadenylation inhibitor project, biochemical, fluorescence polarization, Cy5-PAM2 peptide, secondary (AID 602260). To be noted: read-out: IC50_Mean. Type of test: functional. (Polarisation of emitted light reports the rotation of a fluorescent probe.)
Test [10] has as its target Troponin, cardiac muscle (Homo sapiens, UniProt P19429+P45379+P63316). The test is described as follows: Fluorescence-based biochemical high throughput dose response assay for activators of the calcium sensitivity of cardiac Regulated Thin Filaments (RTF). [Related pubchem assays (depositor defined):AID493008, AID493018, AID504382, AID504383]. Type of test: protein-complex assay.

For test [11], the target named is T3, Protein skinhead-1 (Caenorhabditis elegans, UniProt P34707).
T3 sequence (P34707 whole entry): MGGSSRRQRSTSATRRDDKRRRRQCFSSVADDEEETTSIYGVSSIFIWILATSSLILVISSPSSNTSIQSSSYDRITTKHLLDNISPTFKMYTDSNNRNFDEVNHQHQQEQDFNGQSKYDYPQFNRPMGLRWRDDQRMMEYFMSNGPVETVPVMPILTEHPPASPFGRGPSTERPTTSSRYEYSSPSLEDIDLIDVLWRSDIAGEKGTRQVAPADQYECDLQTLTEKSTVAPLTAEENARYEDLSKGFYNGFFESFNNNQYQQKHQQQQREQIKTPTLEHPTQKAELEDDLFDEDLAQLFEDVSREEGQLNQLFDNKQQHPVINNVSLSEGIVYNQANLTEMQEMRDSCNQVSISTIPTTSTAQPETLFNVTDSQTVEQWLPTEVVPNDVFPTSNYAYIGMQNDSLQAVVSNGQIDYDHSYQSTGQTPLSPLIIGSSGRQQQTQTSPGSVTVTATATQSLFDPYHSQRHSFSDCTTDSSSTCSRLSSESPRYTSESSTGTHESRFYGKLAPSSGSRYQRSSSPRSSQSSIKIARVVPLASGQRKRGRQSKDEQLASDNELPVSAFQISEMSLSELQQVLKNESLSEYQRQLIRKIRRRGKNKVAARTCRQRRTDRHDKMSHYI
It is filed as functional.

Test [12] has as its target T4, Dual specificity protein phosphatase 6 (Rattus norvegicus, UniProt Q64346).
T4 sequence (Q64346 whole entry): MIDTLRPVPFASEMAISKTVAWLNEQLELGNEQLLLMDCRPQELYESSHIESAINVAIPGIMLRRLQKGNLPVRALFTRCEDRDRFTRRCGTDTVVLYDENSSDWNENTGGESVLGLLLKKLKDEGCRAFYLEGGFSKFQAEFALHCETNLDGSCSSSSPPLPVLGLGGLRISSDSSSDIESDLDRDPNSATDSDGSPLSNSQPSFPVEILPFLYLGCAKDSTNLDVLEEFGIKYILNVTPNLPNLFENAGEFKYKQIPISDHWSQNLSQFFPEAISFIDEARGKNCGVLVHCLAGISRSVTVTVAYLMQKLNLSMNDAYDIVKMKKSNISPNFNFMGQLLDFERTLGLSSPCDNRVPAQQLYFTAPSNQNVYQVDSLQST

For test [13], the target named is T5, Tyrosine-protein phosphatase non-receptor type 7 (Homo sapiens, UniProt P35236).
T5 sequence (P35236 whole entry): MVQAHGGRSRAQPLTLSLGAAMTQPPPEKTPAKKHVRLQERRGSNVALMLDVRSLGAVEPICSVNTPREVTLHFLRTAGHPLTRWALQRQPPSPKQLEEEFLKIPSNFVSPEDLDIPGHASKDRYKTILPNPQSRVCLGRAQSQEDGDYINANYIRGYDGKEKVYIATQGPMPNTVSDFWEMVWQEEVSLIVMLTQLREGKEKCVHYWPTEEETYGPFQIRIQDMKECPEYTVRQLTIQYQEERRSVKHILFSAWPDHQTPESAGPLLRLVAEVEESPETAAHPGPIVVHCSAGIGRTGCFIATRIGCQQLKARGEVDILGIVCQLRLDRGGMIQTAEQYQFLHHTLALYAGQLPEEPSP
It is filed as functional.

Test [14] concerns the target T4, Dual specificity protein phosphatase 6. It is filed as functional.
The target in test [15] is Glyceraldehyde-3-phosphate dehydrogenase (Homo sapiens, UniProt P04406).
The target in test [16] is T4, Dual specificity protein phosphatase 6. The test is described as follows: MKP-3 phosphatase inhibitors, primary screen, biochemical, rat enzyme, in vitro (AID 425).
Test [17] has as its target Heat shock cognate 71 kDa protein (Homo sapiens, UniProt P11142). The test is described as follows: In Vitro Hsc70 Dose Response Fluorescence Polarization Assay. [Related pubchem assays: 1072 ].
The target in test [18] is T6, Carboxy-terminal domain RNA polymerase II polypeptide A small phosphatase 1 (Homo sapiens, UniProt Q9GZU7).
T6 sequence (Q9GZU7 whole entry): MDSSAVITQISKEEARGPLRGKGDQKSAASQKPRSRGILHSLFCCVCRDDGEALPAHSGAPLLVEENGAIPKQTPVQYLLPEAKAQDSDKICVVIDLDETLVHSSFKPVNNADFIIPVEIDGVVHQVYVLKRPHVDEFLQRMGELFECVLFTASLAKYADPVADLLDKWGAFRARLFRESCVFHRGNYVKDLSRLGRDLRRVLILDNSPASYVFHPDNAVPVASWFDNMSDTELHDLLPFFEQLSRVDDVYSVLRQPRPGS
The test is described as follows: inhibitors of CTDSP1, concentration-response testing, biochemical assay, absorbance-based, actives from ultra-high-throughput screening (AID 540297). It is filed as functional.

For test [19], the target named is Heat shock 70 kDa protein 1A (Homo sapiens, UniProt P0DMV8). The test is described as follows: Hsp70 inhibitors, SAR follow-up, biochemical, fluorescence polarization (AID 1072).
Test [20] concerns the target T7, Nucleotide-binding oligomerization domain-containing protein 1 (Homo sapiens, UniProt Q9Y239).
T7 sequence (Q9Y239 whole entry): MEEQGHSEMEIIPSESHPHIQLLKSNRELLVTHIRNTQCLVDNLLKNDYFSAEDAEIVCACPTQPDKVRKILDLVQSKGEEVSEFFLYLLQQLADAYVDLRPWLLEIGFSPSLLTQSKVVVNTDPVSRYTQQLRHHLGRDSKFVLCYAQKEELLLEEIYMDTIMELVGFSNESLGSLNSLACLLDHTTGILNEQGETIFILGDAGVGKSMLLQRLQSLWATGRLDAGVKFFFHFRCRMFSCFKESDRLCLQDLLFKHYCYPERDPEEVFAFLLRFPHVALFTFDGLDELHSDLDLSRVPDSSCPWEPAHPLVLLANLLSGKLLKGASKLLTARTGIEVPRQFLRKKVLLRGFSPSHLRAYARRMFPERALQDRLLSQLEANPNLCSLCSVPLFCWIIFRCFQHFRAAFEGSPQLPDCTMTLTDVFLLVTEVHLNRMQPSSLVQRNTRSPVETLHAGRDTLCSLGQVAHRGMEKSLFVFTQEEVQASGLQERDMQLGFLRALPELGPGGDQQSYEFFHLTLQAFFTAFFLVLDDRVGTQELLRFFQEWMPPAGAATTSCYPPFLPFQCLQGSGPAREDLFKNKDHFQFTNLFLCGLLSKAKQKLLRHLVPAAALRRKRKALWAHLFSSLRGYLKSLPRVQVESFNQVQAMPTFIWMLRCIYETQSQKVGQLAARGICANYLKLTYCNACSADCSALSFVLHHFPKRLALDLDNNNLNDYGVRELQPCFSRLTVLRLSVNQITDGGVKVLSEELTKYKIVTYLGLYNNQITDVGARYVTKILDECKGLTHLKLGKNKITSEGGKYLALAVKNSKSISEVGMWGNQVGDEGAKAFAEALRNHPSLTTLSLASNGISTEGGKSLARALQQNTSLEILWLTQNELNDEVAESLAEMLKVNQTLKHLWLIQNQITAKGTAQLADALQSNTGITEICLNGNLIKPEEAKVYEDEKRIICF
Kind of test: NOD1 signaling inhibitors, SAR follow-up, revised (AID 2333). It is filed as functional.

Test [21] deals with Nucleotide-binding oligomerization domain-containing protein 2 (Homo sapiens, UniProt Q9HC29). Kind of test: PubChem AID 2334. Type of test: functional.
Test [22] deals with HEK293. The test is described as follows: cells. Conditions: Homo sapiens.
Test [23] has as its target Tumor necrosis factor (Homo sapiens, UniProt P01375). Kind of test: TNFa-triggered NF-kB activation inhibitors, SAR follow-up, cell-based, revised (AID 2337). It is filed as functional.
In test [24] the target is Dual specificity tyrosine-phosphorylation-regulated kinase 1A (Rattus norvegicus, UniProt Q63470). It is filed as biochemical, Homo sapiens.

Active and inactive are the calls of the source. Where only a bound is given, the exact number is not on record here.

Regarding `O=C(c1cc(O)c(O)c([N+](=O)[O-])c1)c1ccccc1F`, the AC50 (in general, the concentration at which the activity in the assay is half-maximal) in [1] is 3.2 µM (active); in [2] it was 95 µM (active).
Consider `Cc1cc(NCc2ccc(F)cc2Cl)n2nnnc2n1`, for which the results for the IC50 in test [3] and in test [4] were 15.7 µM (active) and 12.1 µM (active), respectively.
Turning to `COc1cccc(-c2nnc(NC(=O)c3cccc(F)c3)o2)c1`, the results for the CC50 in [5] and in test [7] were 13 µM (active) and 9 µM (active), respectively. The IC50 in test [6] was 3.03 µM (active).
With `COC(=O)C1=C(C)NC(=O)/C1=C\N(C)C`, the IC50 in [8] was > 66 µM (inactive); in [9], > 66 µM (inactive); in test [11], > 100 µM (inactive). In test [10], the EC50 – broadly, the concentration at which the effect is half-maximal – was > 71.5 µM (inactive).
Regarding `CCOC(=O)C1Nc2c(O)cc(C)cc2C2C=CCC12` (stereo not drawn), the IC50 was > 100 µM (inactive) in test [12], > 100 µM (not active) in test [13], > 100 µM (inactive) in test [14] and > 100 µM (not active) in test [15].
With `O=C(CSc1nnc2scc(-c3ccccc3)n12)Nc1nsc(-c2ccccc2)n1`, the IC50 in test [16] is 11 µM (active); in test [12] it was 6.9 µM (active); in [13], 12.8 µM (active); in [17], > 100 µM (not active); in test [18] it was 6.59 µM (active); in [14], 9.41 µM (active). Also, the IC50 in test [15] was 27.4 µM (active); in [19], > 100 µM (not active).
For `CCC(=O)Nc1nc2ccccc2n1Cc1ccccc1`, the CC50 (commonly the concentration that lowers cell viability or growth by half) in test [5] is > 40 µM (active); in [7] it was > 20 µM (active). In addition, the IC50 in test [20] is > 20 µM (inactive); in test [21] it was > 20 µM (inactive); in [6] it was 6.75 µM (active); in [22] it was > 20 µM (inactive); in test [23], > 20 µM (inactive).
Regarding `O=C(Oc1ccc(-c2ccccc2)cc1)c1cccc2c1NC(C(=O)O)C1CC=CC21` (stereo not drawn), the IC50 was 3.4 µM (active) in test [12]; 5.62 µM (active) in test [13]; > 100 µM (not active) in test [17]; 3.5 µM (active) in test [14]; > 100 µM (not active) in test [15]; > 100 µM (not active) in test [19].
Take `COc1ccccc1C1CCN(c2cc(O)ccc2[N+](=O)[O-])CC1`: in test [24], the AC50 was 4.38 µM (active).
For `CN(c1ccccc1)S(=O)(=O)c1cccc(NC(=O)CN2C(=O)NC3(CCCC3)C2=O)c1`, the AC50 in test [2] is 40.1 µM (active).
As for `O=C(Cc1ccccc1)Nc1nc2ccccc2n1Cc1ccc(Cl)cc1`, the IC50 in test [20], in test [21], in test [22] and in [23] was > 20 µM (inactive) throughout.
Consider `Cc1cc(C)nc(SC(C)C(=O)N/N=C/c2cccs2)n1` (stereo not drawn), for which the AC50 in [2] was 22.1 µM (active).

Source of the values: ChEMBL document CHEMBL1201862, “PubChem BioAssay data set” (2004).
